Measurements taken from ChEMBL document CHEMBL2046424, “Synthesis and anti Methicillin resistant Staphylococcus aureus activity of substituted chalcones alone and in combination with non-beta-lactam antibiotics” (2012).
Converted amounts (≈) assume the structure as drawn. The source made the active and inactive calls. The calls are words filed in the database; no cut-off is given here.

Columns and labels:
Staphylococcus aureus [1] = experiment: Antibacterial activity against methicillin-resistant Staphylococcus aureus ATCC 43300 at 30 ug/ml after 24 hrs by disc diffusion method; assay type: functional; conditions: ATCC 43300, 24 h, read-out: DIZ
Staphylococcus aureus [2] = experiment: Antibacterial activity against methicillin-resistant Staphylococcus aureus ATCC 43300 after 24 hrs by microdilution method; assay type: functional; conditions: ATCC 43300, 24 h
Staphylococcus aureus [3] = experiment: Antibacterial activity against methicillin-sensitive Staphylococcus aureus ATCC 25923 at 30 ug/ml after 24 hrs by disc diffusion method; assay type: functional; conditions: ATCC 25923, 24 h, read-out: DIZ
Staphylococcus aureus [4] = experiment: Antibacterial activity against methicillin-resistant Staphylococcus aureus ATCC 43300 at 256 ug/ml after 24 hrs by disc diffusion method; assay type: functional, organism-based
Staphylococcus aureus [5] = experiment: Antibacterial activity against methicillin-sensitive Staphylococcus aureus ATCC 25923 at 256 ug/ml after 24 hrs by disc diffusion method; assay type: functional, organism-based
Staphylococcus aureus [6] = experiment: Antibacterial activity against methicillin-sensitive Staphylococcus aureus ATCC 25923 after 24 hrs by microdilution method; assay type: functional; conditions: ATCC 25923, 24 h
Staphylococcus aureus [7] = experiment: microbe, parasite or virus in culture; conditions: ATCC 43300, 24 h, read-out: DIZ
Description: Antibacterial activity against methicillin-resistant Staphylococcus aureus ATCC 43300 at 5 ug/ml after 24 hrs by disc diffusion method

Staphylococcus aureus [8] = experiment: microbe, parasite or virus in culture; conditions: ATCC 25923, 24 h, read-out: DIZ
Description: Antibacterial activity against methicillin-sensitive Staphylococcus aureus ATCC 25923 at 5 ug/ml after 24 hrs by disc diffusion method

Staphylococcus aureus [9] = experiment: Antibacterial activity against methicillin-resistant Staphylococcus aureus ATCC 43300 at 2 ug/disc after 24 hrs by disc diffusion method; assay type: functional, organism-based
Staphylococcus aureus [10] = experiment: Antibacterial activity against methicillin-sensitive Staphylococcus aureus ATCC 25923 at 2 ug/ml after 24 hrs by disc diffusion method; assay type: functional; conditions: ATCC 25923, 24 h, read-out: DIZ
Staphylococcus aureus [11] = experiment: Antibacterial activity against methicillin-sensitive Staphylococcus aureus ATCC 25923 at 102.4 mg/ml after 24 hrs by disc diffusion method; assay type: functional; conditions: ATCC 25923, 24 h, read-out: DIZ
Staphylococcus aureus [12] = experiment: Antibacterial activity against methicillin-sensitive Staphylococcus aureus ATCC 25923 after 24 hrs by microdilution method in presence of non-beta lactam antibiotic Doxycycline; assay type: functional
Staphylococcus aureus [13] = experiment: Antibacterial activity against methicillin-resistant Staphylococcus aureus ATCC 43300 at 102.4 mg/ml after 24 hrs by disc diffusion method; assay type: functional; conditions: ATCC 43300, 24 h, read-out: DIZ
Staphylococcus aureus [14] = experiment: Antibacterial activity against methicillin-resistant Staphylococcus aureus ATCC 43300 after 24 hrs by microdilution method in presence of non-beta lactam antibiotic Doxycycline; assay type: functional
Staphylococcus aureus [15] = experiment: Antibacterial activity against methicillin-sensitive Staphylococcus aureus ATCC 25923 at 15 ug/ml after 24 hrs by disc diffusion method; assay type: functional; conditions: ATCC 25923, 24 h, read-out: DIZ
Staphylococcus aureus [16] = experiment: Antibacterial activity against methicillin-resistant Staphylococcus aureus ATCC 43300 at 15 ug/disc after 24 hrs by disc diffusion method; assay type: functional, organism-based
Staphylococcus aureus [17] = experiment: Antibacterial activity against methicillin-resistant Staphylococcus aureus ATCC 43300 after 24 hrs by microdilution method in presence of non-beta lactam antibiotic ciprofloxacin; assay type: functional

SMILES | diameter of the inhibition zone (DIZ) (Staphylococcus aureus [4]) | diameter of the inhibition zone (DIZ) (Staphylococcus aureus [5]) | other results
CN[C@H](CC(C)C)C(=O)N[C@H]1C(=O)N[C@@H](CC(N)=O)C(=O)N[C@H]2C(=O)N[C@H]3C(=O)N[C@H](C(=O)N[C@H](C(=O)O)c4cc(O)cc(O)c4-c4cc3ccc4O)[C@H](O)c3ccc(c(Cl)c3)Oc3cc2cc(c3O[C@@H]2O[C@H](CO)[C@@H](O)[C@H](O)[C@H]2O[C@H]2C[C@](C)(N)[C@H](O)[C@H](C)O2)Oc2ccc(cc2Cl)[C@H]1O [VANCOMYCIN] | – | – | zone of inhibition at 30 µg/mL (Staphylococcus aureus [1]): 16 mm; MIC (Staphylococcus aureus [2]): 8 mg/L (≈ 5.52 µM); zone of inhibition at 30 µg/mL (Staphylococcus aureus [3]): 17 mm
COc1ccc(/C=C/C(=O)c2ccccc2)cc1OC | inactive | inactive | –
O=C(O)c1cn(C2CC2)c2cc(N3CCNCC3)c(F)cc2c1=O [CIPROFLOXACIN] | – | – | MIC (Staphylococcus aureus [6]): 0.25 mg/L (≈ 0.754 µM); MIC (Staphylococcus aureus [2]): 0.5 mg/L (≈ 1.51 µM); zone of inhibition at 5 µg/mL (Staphylococcus aureus [7]): 21 mm; zone of inhibition at 5 µg/mL (Staphylococcus aureus [8]): 27 mm
COc1ccc(C(=O)/C=C/c2cc(OC)c(OC)c(OC)c2)c(O)c1 | inactive | inactive | –
CCC[C@@H]1C[C@@H](C(=O)N[C@@H]([C@H]2O[C@H](SC)[C@H](O)[C@@H](O)[C@H]2O)[C@H](C)Cl)N(C)C1 [CLINDAMYCIN] | – | – | diameter of the inhibition zone (DIZ) (Staphylococcus aureus [9]): inactive; zone of inhibition at 2 µg/mL (Staphylococcus aureus [10]): 24 mm
O=C(/C=C/c1ccccc1O)c1ccc(Br)cc1 | – | – | MIC (Staphylococcus aureus [6]): 32 mg/L (≈ 106 µM); zone of inhibition at 102400 µg/mL (Staphylococcus aureus [11]): 13 mm; fractional inhibitory concentration index (FICI) (Staphylococcus aureus [12]): 0.37; MIC (Staphylococcus aureus [2]): 64 mg/L (≈ 211 µM); zone of inhibition at 102400 µg/mL (Staphylococcus aureus [13]): 13 mm; fractional inhibitory concentration index (FICI) (Staphylococcus aureus [14]): 0.62
COc1cccc(/C=C/C(=O)c2ccccc2)c1OC | inactive | inactive | –
COc1ccc(/C=C/C(=O)c2ccccc2O)cc1 | inactive | inactive | –
COc1ccc(/C=C/C(=O)c2ccccc2O)c(OC)c1 | inactive | inactive | –
COc1ccc(/C=C/C(=O)c2ccccc2)cc1 | inactive | inactive | –
COc1cccc(/C=C/C(=O)c2ccc(Br)cc2)c1 | inactive | inactive | –
CC[C@H]1OC(=O)[C@H](C)[C@@H](O[C@H]2C[C@@](C)(OC)[C@@H](O)[C@H](C)O2)[C@H](C)[C@@H](O[C@@H]2O[C@H](C)C[C@H](N(C)C)[C@H]2O)[C@](C)(O)C[C@@H](C)C(=O)[C@H](C)[C@@H](O)[C@]1(C)O [ERYTHROMYCIN] | – | – | zone of inhibition at 15 µg/mL (Staphylococcus aureus [15]): 25 mm; diameter of the inhibition zone (DIZ) (Staphylococcus aureus [16]): inactive
COc1ccc(/C=C/C(=O)c2ccccc2O)cc1OC | inactive | inactive | –
O=C(/C=C/c1ccccc1O)c1ccccc1 | – | – | MIC (Staphylococcus aureus [6]): 32 mg/L (≈ 143 µM); zone of inhibition at 102400 µg/mL (Staphylococcus aureus [11]): 11 mm; fractional inhibitory concentration index (FICI) (Staphylococcus aureus [12]): 0.31; MIC (Staphylococcus aureus [2]): 64 mg/L (≈ 285 µM); fractional inhibitory concentration index (FICI) (Staphylococcus aureus [17]): 0.75; zone of inhibition at 102400 µg/mL (Staphylococcus aureus [13]): 11 mm; fractional inhibitory concentration index (FICI) (Staphylococcus aureus [14]): 0.15
COc1ccccc1/C=C/C(=O)c1ccccc1 | inactive | inactive | –
O=C(/C=C/c1ccc(Cl)c(Cl)c1)c1ccccc1O | inactive | inactive | –
COc1ccc(/C=C/C(=O)c2ccc(OC)cc2O)cc1 | inactive | inactive | –
COc1ccc(C(=O)/C=C/c2ccc(OC)cc2OC)c(O)c1 | inactive | inactive | –
COc1cccc(/C=C/C(=O)c2ccc(Br)cc2)c1OC | inactive | inactive | –
